Test results published in PMC4117522, “Proteasome Inhibitors Alter Levels of Intracellular Peptides in HEK293T and SH-SY5Y Cells” (PLoS ONE, 2014).
Where “and” joins values, the source holds several entries; their conditions need not be identical. Identical values can stand only once. Like-named read-outs stand apart in the source and are kept apart here.

Experiments:
HEK293T cells [1] = test: Quantitative peptidomics (TMAB isotopic labels, LC-MS/MS) of inhibitor-treated HEK293T cells; format: cell-based, human; details: HEK293T cells, 35 min; 2.5 µM MG132, 1 µM other inhibitors
Description: (§1) HEK293T and SH-SY5Y cells were grown to 80–90% confluence in DMEM and RPMI supplemented with 10% fetal bovine serum and penicillin/streptomycin. A single plate of cells (150 mm×25 mm) was used for each group. At the start of the experiment, media were removed from the plates and cells were washed with DPBS (138 mM NaCl, 8.06 mM Na2HPO4, 2.67 mM KCl, 1.47 mM KH2PO4, 0.9 mM CaCl2 and 0.49 mM MgCl2). This was followed by addition of serum-free media containing the proteasome or aminopeptidase inhibitors, or 0.05% DMSO as a control for the inhibitors that were soluble in DMSO. Each experiment consisted of two control groups and two or three replicate groups of cells treated with one of the inhibitors. The cells were incubated at 37°C for 20 minutes, following which media containing the inhibitor was removed, cells were washed with DPBS, detached from the plate by scraping into DPBS (without trypsin), and centrifuged at 800×g for 5 min. The wash buffer was supplemented with the appropriate inhibitor at the same concentration as used for the treatment, thereby ensuring that the changes induced in peptide levels were not reversed during harvesting of cells due to possible dissociation of the reversible inhibitors. The wash time (including centrifugation) was 15 minutes, for a total treatment time of 35 minutes. After centrifugation, the cell pellet was resuspended in 1 ml of 80°C water and incubated in an 80°C water bath for 20 minutes to inactivate proteases. The mixture was again centrifuged (13,000×g, 30 min, 4°C) and was stored at −80°C overnight. For peptide extraction, the samples were thawed and centrifuged again. The lysate was subsequently cooled on ice and acidified with HCl to a final concentration of 10 mM. After 15 min incubation on ice, the lysate was centrifuged at 13,000×g for 30 min at 4°C. To the supernatant, 250 µL of dibasic sodium phosphate (0.4 M, pH 9.5) was added and the mixture was stored at −80°C until labeling.
(§2) The labeling protocol has been earlier described in detail. Each group within an experiment (control/treated) was labeled with a different isotopic tag. The TMAB-NHS labels were dissolved in DMSO to a concentration of 400 µg/µL and 15 mg of label was used per 150 mm plate of cells. […] At the beginning, the pH of the peptide extract was adjusted to 9.5 with 1 M NaOH. Labeling was performed over 8 rounds; 4.69 µL of the label was added to the extract every 20 min. The pH was measured between each round and if necessary, brought back to 9.5 for the first five rounds. For rounds 6–8, the pH was not adjusted after the addition of the TMAB-NHS reagent. After the final round of label addition, the pH was adjusted to 9.5 again and the extracts were incubated at room temperature for 90 min. Thereafter, 30 µL of 2.5 M glycine was added to quench any unreacted label. Following 40 min incubation at room temperature, the labeled extracts for a single experiment were pooled and filtered through Amicon Ultracel-10 K units. It is important to ensure that only N-terminal amines and lysine side-chain amines of peptides are TMAB-labeled and not tyrosines. To hydrolyze any labeled tyrosine, 30 µL of a 2 M solution of hydroxylamine hydrochloride (pH 3.7) was added over three rounds to the pooled and filtered sample. The pH was measured after the addition of hydroxylamine and adjusted to 9.0 with 1 M NaOH. The samples were desalted through PepClean C-18 spin columns (Thermo Scientific, Rockford, IL, USA) by following manufacturer’s instructions. Peptides were eluted using 160 µL of 0.5% TFA and 70% acetonitrile, frozen at −80°C and then lyophilized in a vacuum centrifuge and stored at −80°C until analysis by mass spectrometry.
(§3) The LC-MS/MS experiments were performed on a Synapt G2 mass spectrometer coupled to a NanoAcquity capillary liquid chromatography system (Waters Co., Milford, MA, USA).

SH-SY5Y cells = test: Quantitative peptidomics (TMAB isotopic labels, LC-MS/MS) of inhibitor-treated SH-SY5Y cells; format: cell-based, human; details: for change in levels of intracellular peptides (peptidome): SH-SY5Y cells, 35 min, 2.5 µM MG132, 1 µM other inhibitors
Description: as §1, §2, §3

[2] = molecular target: T1, recombinant human puromycin-sensitive aminopeptidase (PSAP, rhNPEPPS) (Homo sapiens, UniProt P55786); test: Cleavage of Leu-AMC and Ala-AMC by purified recombinant PSAP; format: biochemical; details: for effect on cleavage of Ala-AMC by purified PSAP: 10 µM inhibitor
T1 construct: purchased R&D Systems
T1 sequence (P55786 whole entry): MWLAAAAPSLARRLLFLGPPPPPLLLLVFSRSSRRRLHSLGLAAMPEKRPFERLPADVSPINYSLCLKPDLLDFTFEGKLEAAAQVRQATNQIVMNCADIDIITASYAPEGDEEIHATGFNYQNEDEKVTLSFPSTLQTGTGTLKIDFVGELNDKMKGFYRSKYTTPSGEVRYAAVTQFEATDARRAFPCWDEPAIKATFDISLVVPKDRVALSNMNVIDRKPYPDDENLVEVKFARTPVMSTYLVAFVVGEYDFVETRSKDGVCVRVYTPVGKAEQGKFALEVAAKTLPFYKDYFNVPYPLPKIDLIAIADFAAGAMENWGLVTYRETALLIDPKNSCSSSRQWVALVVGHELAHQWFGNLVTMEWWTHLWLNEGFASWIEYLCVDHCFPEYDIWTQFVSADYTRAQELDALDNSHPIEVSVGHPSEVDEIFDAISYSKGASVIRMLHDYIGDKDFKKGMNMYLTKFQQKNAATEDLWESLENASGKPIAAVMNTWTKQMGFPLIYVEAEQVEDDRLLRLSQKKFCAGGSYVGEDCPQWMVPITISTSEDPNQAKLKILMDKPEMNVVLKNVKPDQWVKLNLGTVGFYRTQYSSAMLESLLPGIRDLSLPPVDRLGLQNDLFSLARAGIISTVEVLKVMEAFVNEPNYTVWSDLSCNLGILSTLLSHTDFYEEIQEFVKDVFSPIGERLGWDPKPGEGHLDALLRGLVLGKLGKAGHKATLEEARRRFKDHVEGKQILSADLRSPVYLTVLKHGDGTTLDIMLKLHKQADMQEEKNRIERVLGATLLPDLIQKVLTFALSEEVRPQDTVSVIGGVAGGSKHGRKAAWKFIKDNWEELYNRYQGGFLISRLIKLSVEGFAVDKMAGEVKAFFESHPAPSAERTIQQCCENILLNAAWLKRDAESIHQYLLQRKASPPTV
Description: To measure the effect of inhibitors on cleavage of Leu-AMC and Ala-AMC by purified PSAP, recombinant human PSAP (rhNPEPPS, R&D Systems) was diluted 1∶2000 in Buffer 2 containing 0.1 mg/ml BSA. The enzyme was pre-incubated with the inhibitor and Buffers 1 or 2, followed by addition of 100 µM final concentration of Leu-AMC (to the mix containing Buffer 1) and Ala-AMC (to the mix containing Buffer 2). After incubation at 37°C for 1 hour, PSAP activity was quantified by fluorescence measurement of the substrate (380 nm excitation, 460 nm emission).
(§4) Figure 7 Effect of aminopeptidase inhibitors on Ala-AMC and Leu-AMC cleavage. HEK 293T cell extract (panels A–D) or recombinant PSAP (panels E–F) were treated with increasing concentrations of bestatin or puromycin for 30 minutes followed by the addition of substrate and incubation for 1 hour. Enzyme activity was determined by fluorescence measurement of AMC and expressed as percentage enzyme activity relative to the control without inhibitor. (A) Bestatin inhibition of HEK293T cell extract assayed with Ala-AMC. (B) Bestatin inhibition of HEK293T cell extract assayed with Leu-AMC. (C) Puromycin inhibition of HEK293T cell extract assayed with Ala-AMC. (D) Puromycin inhibition of HEK293T cell extract assayed with Leu-AMC. (E) Puromycin inhibition of purified PSAP assayed with Ala-AMC. (F) Puromycin inhibition of purified PSAP assayed with Leu-AMC. Error bars show standard error of mean (n = 4), points without error bars had error ranges smaller than the symbol size. Statistical analysis was performed using Student’s t-test: *, p≤0.05; **, p≤0.01; ***, p≤0.001; ns, no significant difference (p>0.05) versus the control.
(§5) Figure 8 Effect of proteasome inhibitors on Ala-AMC and Leu-AMC cleavage. HEK 293T cell extract or recombinant PSAP was treated with 10 µM of each of the proteasome inhibitors for 1 hour in addition to a 30 min pre-incubation without the substrate. Enzyme activity was determined by fluorescence measurement of AMC and expressed as percentage enzyme activity relative to the control without inhibitor. Panels A and B represent the effect of proteasome inhibitors on cleavage of Ala-AMC and Leu-AMC respectively, in HEK293T cell extract. […] Error bars show standard error of mean (n = 4). Statistical analysis was performed using Student’s t-test: *, p≤0.05; **, p≤0.01; ***, p≤0.001; ns, no significant difference (p>0.05) versus the control.

[3] = tested on: HEK293T cell aminopeptidase activity (Leu-AMC cleavage); test: Aminopeptidase assay with Leu-AMC in HEK293T cell extracts; format: biochemical, human; details: HEK293T cell extract; for effect on cleavage of Leu-AMC: 10 µM inhibitor
Description: (§6) All enzyme assays described below were performed in the linear range of the assay, as determined from time-course studies. HEK293T cells were lysed by sonication in 50 mM TrisHCl buffer, pH 7.5, containing 40 mM KCl, 5 mM MgCl2, 0.5 mM ATP, and 1 mM DTT (Buffer 1).
(§7) To measure TPP2, the fluorescent substrate was Ala-Ala-Phe-AMC. Aminopeptidase (AP) assays were performed with Leu-AMC and Ala-AMC, which detect leucine aminopeptidase (LAP), puromycin-sensitive aminopeptidase (PSAP), and other enzymes. To measure the effect of aminopeptidase/proteasome inhibitors on cleavage of Ala-Ala-Phe-AMC and Leu-AMC, 1∶50 dilution of the cell extract was pre-incubated with the inhibitor and Buffer 1 for 30 min, followed by addition of 100 µM final concentration of the respective substrate. For Ala-AMC, the same dilution of the cell extract was pre-incubated with the inhibitor and 50 mM MOPS buffer, pH 7.5, containing 40 mM KCl, 5 mM MgCl2, 0.5 mM ATP, and 1 mM DTT (Buffer 2), followed by addition of 100 µM final concentration of the substrate. After incubation at 37°C for 1 hour, enzyme activity was quantified by fluorescence measurement of the substrate (380 nm excitation, 460 nm emission).
as §4, §5

[4] = tested on: HEK293T cell aminopeptidase activity (Ala-AMC cleavage); test: Aminopeptidase assay with Ala-AMC in HEK293T cell extracts; format: biochemical, human; details: HEK293T cell extract; for effect on cleavage of Ala-AMC: 10 µM inhibitor; for residual amount of activity: 50 µM
Description: as §6, §7, §4, §5

HEK293T cells [5] = details: cited from earlier work
[6] = molecular target: T2, proteasome (beta 5, chymotrypsin-like activity) in HEK293T cell extract (Homo sapiens, UniProt P20618+P28074); test: Proteasome activity in HEK293T cell extracts with beta 5-selective substrate Suc-Leu-Leu-Val-Tyr-AMC; format: biochemical; details: Suc-Leu-Leu-Val-Tyr-AMC, 30 min pre-incubation, 1 hour, read-out: IC50, inhibition of proteasome activity
T2 construct: endogenous in cells; host or cells: HEK293T
Description: as §6
To measure proteasome activity, a 1∶50 dilution of the cell extract was pre-incubated with the inhibitor and Buffer 1 for 30 min, followed by addition of 100 µM final concentration of the proteasome substrate succinyl-Leu-Leu-Val-Tyr-7-amino-4-methylcoumarin (Suc-Leu-Leu-Val-Tyr-AMC). After incubation at 37°C for 1 hour, proteasomal activity was quantified by fluorescence measurement of the substrate (380 nm excitation, 460 nm emission).
Figure 2 Inhibition of proteasome activity in HEK293T cells with various proteasome inhibitors. HEK293T cell extract was treated with increasing concentrations of the indicated compound for […] and incubation for 1 hour […]. Enzyme activity was determined by fluorescence measurement of AMC. The resulting activity is expressed as percent enzyme activity relative to the control reaction without inhibitor.

CC(C)C[C@H](NC(=O)[C@H](CCc1ccccc1)NC(=O)CN1CCOCC1)C(=O)N[C@@H](Cc1ccccc1)C(=O)N[C@@H](CC(C)C)C(=O)[C@@]1(C)CO1 [carfilzomib, reference compound]
change in levels of intracellular peptides (peptidome) (HEK293T cells [1]): decreased the levels of many peptides but also elevated levels of a number of other peptides | change in levels of intracellular peptides (peptidome) (SH-SY5Y cells): decreased the levels of many peptides but also elevated levels of a number of other peptides

CC(=O)N[C@@H](CSC(=O)[C@]1([C@@H](O)C(C)C)NC(=O)[C@H](C)[C@@H]1O)C(=O)O [Lactacystin]
Relative Levels of peptide ADKVPKTAENFRAL (PPIA) (SH-SY5Y cells; 1 uM, 35', SH-SY5Y): < 0.20 | Relative Levels of peptide Ac-AAPVDLELKKAFTEL (PFDN1) (SH-SY5Y cells; 1 uM, 35', SH-SY5Y): < 0.20 | Relative Levels of peptide Ac-ASKRALVIL (PARK7) (SH-SY5Y cells; 1 uM, 35', SH-SY5Y): 0.25 and < 0.20 and 0.21 | Relative Levels of peptide Ac-ASKRALVILA (PARK7) (SH-SY5Y cells; 1 uM, 35', SH-SY5Y): 0.52 and 0.32 and 0.42 | Relative Levels of peptide Ac-MDTSRVQPIKL (RPS28) (SH-SY5Y cells; 1 uM, 35', SH-SY5Y): 0.47 and 0.49 and 0.51 | Relative Levels of peptide Ac-SSEEGKLFVGGLNF (RBM3) (SH-SY5Y cells; 1 uM, 35', SH-SY5Y): 0.55 and 0.38 and 0.49 | Relative Levels of peptide Ac-SYGRPPPDVEGMTSLKVDNL (SRSF2) (SH-SY5Y cells; 1 uM, 35', SH-SY5Y): 0.63 and 0.36 and 0.45 | Relative Levels of peptide GAIRDIDL (SRSF1) (SH-SY5Y cells; 1 uM, 35', SH-SY5Y): < 0.20 | Relative Levels of peptide KHTGPGILSM (PPIA) (SH-SY5Y cells; 1 uM, 35', SH-SY5Y): 0.26 and 0.24 and 0.25

CC(C)C[C@H](NC(=O)[C@H](CC(C)C)NC(=O)[C@H](CC(C)C)NC(=O)OCc1ccccc1)B(O)O [MG262]
change in levels of intracellular peptides (peptidome) (HEK293T cells [1]): changes that were generally similar to those caused by 500 nM bortezomib | effect on cleavage of Ala-AMC by purified PSAP [2]: inhibitory | change in levels of intracellular peptides (peptidome) (SH-SY5Y cells): changes that were generally similar to those caused by 500 nM bortezomib | effect on cleavage of Leu-AMC [3]: inhibit | effect on cleavage of Ala-AMC [4]: inhibit

CC[C@H](C)[C@H](NC(=O)[C@H]([C@@H](C)CC)N(C)C(C)=O)C(=O)N[C@H](C(=O)N[C@@H](CC(C)C)C(=O)[C@@]1(C)CO1)[C@@H](C)O [epoxomicin]
change in levels of intracellular peptides (peptidome) (HEK293T cells [5]; HEK293T cells, 0.2 µM for 1 hour): the majority of peptides was greatly decreased | levels of peptides arising from cleavage at beta 1 sites (HEK293T cells [5]; cells treated for 1 hour with 2 µM): greatly elevated

COc1ccc(C[C@H](N)C(=O)N[C@H]2[C@@H](O)[C@H](n3cnc4c(N(C)C)ncnc43)O[C@@H]2CO)cc1 [puromycin]
potency on purified PSAP versus HEK293T cell extract ([2]; Ala-AMC and Leu-AMC): comparable | inhibition of Leu-AMC cleavage [3]: > 80% | inhibition of Ala-AMC cleavage [4]: > 80% | residual amount of activity [4]: ~20%

CC(C)C[C@H](NC(=O)[C@@H](O)[C@H](N)Cc1ccccc1)C(=O)O [bestatin]
inhibition of Leu-AMC cleavage [3]: > 80% | inhibition of Ala-AMC cleavage [4]: > 80% | residual amount of activity [4]: ~20% | Enzyme activity (% control with no inhibitor) ([4]; Ala-AMC, bestatin 500 µM, bortezomib 0): 15.5±0.7 % control with no inhibitor

CC(C)C[C@H](NC(=O)CNC(=O)c1cc(Cl)ccc1Cl)B(O)O [MLN2238]
change in levels of intracellular peptides (peptidome) (HEK293T cells [1]): the majority of peptides was greatly decreased | effect on cleavage of Ala-AMC by purified PSAP [2]: inhibitory | effect on cleavage of Leu-AMC [3]: inhibit | effect on cleavage of Ala-AMC [4]: inhibit

CC(C)[C@H](O)[C@@]12NC(=O)[C@H](C)[C@@H]1OC2=O [clasto-Lactacystin β-lactone, reference compound]
change in levels of intracellular peptides (peptidome) (HEK293T cells [1]): the majority of peptides was greatly decreased | IC50 [6]: ~10 µM
